Reference: ChEMBL document CHEMBL1857833, “Screening and optimization of specific chemical series against human African Trypanosomiasis (HAT)”
In brackets after ≈: the same amount, converted by molar mass. Several values for one entry are separate records, joined by “and”; a condition that tells them apart may be missing. Equal values may be shown once.

Columns and labels:
[1] = DNDI: Solubility in phosphate buffered saline at pH7.4 measured by nephelometry at room temperature (NEPH-RT); format: physicochemical; settings: pH 7.4
[2] = mouse, microsomes, 1 µM
Description: DNDI: in vitro intrinsic clearance in mouse liver microsomes at a concentration of 1uM

in vitro = settings: mouse, liver microsomes, t (1 / 2)
Description: DNDI: half life in mouse liver microsomes at a concentration of 1uM

Trypanosoma brucei = assay: DNDI: Inhibition of Human African Trypanosomiasis, SBRI 427, in vitro; format: functional, organism-based
[3] = DNDI: Cytotoxicity against L929 mouse fibroblasts, 72 hour.; format: toxicity, cell-based; settings: mouse, L929 mouse fibroblasts
[4] = DNDI: Lipophilicity measured in Chromatographic hydrophobicity index (CHI) assay, pH 7.4; format: physicochemical; settings: buffer
[5] = DNDI: Cytotoxicity against L929 mouse fibroblasts, CYTO-SP, 24 hour; format: toxicity, cell-based; settings: mouse, L929 mouse fibroblasts
[6] = Trypanosoma brucei, SBRI 427, read-out: IC50

SMILES	solubility kinetic [1] [µM]	CLint in vitro [2] [µL/min/mg]	half-life at 1 µM (in vitro) [min]	IC50 (Trypanosoma brucei; [6]) [µg/mL]	chromatographic logD [4]	IC50 (Trypanosoma brucei)	IC50 at 72 h [3] [µg/mL]	IC50 at 24 h [5] [µg/mL]
COc1ccc(/C(=N/O)Nc2ccc(F)cc2)cc1	100 (≈ 26 µg/mL)	118	7	4.54 (≈ 17.4 µM)	3.02	–	> 10	–
CCC(C)C1C(=O)CC(=O)N1C(=O)OC(C)(C)C (configuration not stated)	> 200	–	–	> 5	4.54	–	> 10	–
Cc1cccc(-c2nc(CNCCC3CCCN3C)c(C)o2)c1 (configuration not stated)	> 200	–	–	0.55 (≈ 1.75 µM)	3.3	–	9.29 (≈ 29.6 µM)	–
O/N=C(\NC1CCCCC1)C1CCCCC1	> 200	–	–	> 5	4.41	–	–	> 50
CCCCCC(C)NCc1coc(-c2cc(OC)cc(OC)c2)n1 (configuration not stated)	6 (≈ 1.99 µg/mL)	–	–	1.25 (≈ 3.76 µM)	–	–	4.75 (≈ 14.3 µM)	–
Cc1ccc(-c2nc(CNCCC3CCCN3C)c(C)o2)cc1 (configuration not stated)	> 200	–	–	0.43 (≈ 1.37 µM)	3.3	–	7.78 (≈ 24.8 µM)	–
CCc1ccccc1N/C(=N\O)c1ccc(OC)cc1	–	397	2	> 5	–	–	–	> 50
CCCCCC(C)NCc1coc(-c2ccc(OCC(C)(C)C)cc2)n1 (configuration not stated)	6 (≈ 2.15 µg/mL)	12	70	0.19 (≈ 0.53 µM)	–	–	0.65 (≈ 1.81 µM)	–
CCN(CC)CCCNc1cc(-c2ccccc2)nc2cc(-c3ccc(F)cc3)nn12	25 (≈ 10.4 µg/mL)	–	–	2.46 (≈ 5.89 µM)	4.84	–	3.05 (≈ 7.3 µM)	–
CCc1ccccc1/C(=N\O)NC1CCCCC1	–	128	7	3.58 (≈ 14.5 µM)	–	–	–	> 50
CCCOc1ccc(-c2nc(CN[C@@H]3C[C@@H]4C[C@H]([C@H]3C)C4(C)C)co2)cc1	–	30	28	0.49 (≈ 1.33 µM)	–	–	< 3.13	15.7 (≈ 42.7 µM)
COc1ccc(/C(=N/O)Nc2cccc(F)c2)cc1	50 (≈ 13 µg/mL)	143.33	5.93	0.67 (≈ 2.57 µM)	3.09	–	> 10	–
COc1ccc(C(=O)OC2=CC(=O)N(C)C2)cc1	> 200	–	–	> 5	2.72	–	> 10	–
CCCCCC(C)NCc1coc(-c2ccc(OCCC)cc2)n1 (configuration not stated)	–	31	27	0.54 (≈ 1.63 µM)	–	–	< 3.13	27.5 (≈ 83.4 µM)
CCCCc1ccc(-c2nc(CNCCN3CCCC3)co2)cc1	< 1	33	26	0.84 (≈ 2.57 µM)	4.89	–	3.87 (≈ 11.8 µM)	–
O/N=C(\NC1CCCCC1)c1cccnc1Oc1c(F)cccc1F	–	351	2	0.46 (≈ 1.32 µM)	–	0.48 µg/mL (≈ 1.38 µM)	> 10	> 50
Cc1cccc(C)c1/C(=N/O)NC1CCCCC1	–	76	11	> 5	–	–	–	> 50
CCCCCOc1ccc(-c2nc(CNC3[C@H]4C[C@@H]5C[C@@H](C[C@H]3C5)C4)co2)cc1 (some centres not stated)	–	27	32	0.3 (≈ 0.76 µM)	–	–	< 3.13	> 50
CCCCCOc1ccc(-c2nc(CNC3CCCCCC3)co2)cc1	–	8	101	0.25 (≈ 0.701 µM)	–	–	< 3.13	29.5 (≈ 82.8 µM)
COc1ccc(N/C(=N/O)c2ccc(OC)cc2)cc1	–	376	2	> 5	–	–	–	> 50
CCCCCC(C)NCc1coc(-c2ccc(C(C)C)cc2)n1 (configuration not stated)	3 (≈ 0.943 µg/mL)	36	24	0.6 (≈ 1.91 µM)	–	–	1.33 (≈ 4.23 µM)	–
CN1CC(OC(=O)c2ccccc2)=CC1=O	> 200	–	–	> 5	2.34	–	> 10	–
CCCCCOc1ccc(-c2nc(CNCCC3CCCN3C)co2)cc1 (configuration not stated)	< 1	11	76	0.14 (≈ 0.377 µM)	5.2	–	1.21 (≈ 3.26 µM)	–
CCCCc1ccc(-c2nc(CNCCN(C)C)co2)cc1	1 (≈ 0.301 µg/mL)	55	15	0.79 (≈ 2.62 µM)	4.97	–	4.87 (≈ 16.2 µM)	–
CC(C)(C)c1ccc(Oc2ncccc2/C(=N/O)NC2CCCCC2)cc1	13 (≈ 4.78 µg/mL)	95	9	0.07 (≈ 0.19 µM)	–	–	> 10	–
COc1ccc(/C(=N/O)Nc2cccc(C#N)c2)cc1	50 (≈ 13.4 µg/mL)	–	–	> 5	2.41	–	> 10	–
CCCCOc1ccc(-c2nc(CNCCC3CCCN3C)co2)cc1 (configuration not stated)	2 (≈ 0.715 µg/mL)	12	73	0.31 (≈ 0.867 µM)	4.64	–	2.9 (≈ 8.11 µM)	–
CCCCc1ccc(-c2nc(CNCC)co2)cc1	–	76	11	0.89 (≈ 3.44 µM)	–	–	5.42 (≈ 21 µM)	–
O/N=C(/NC1CCCCC1)c1cccnc1Oc1ccc(Cl)cc1	–	367	2	0.93 (≈ 2.69 µM)	–	–	> 10	–

Second part, led by results:

solubility kinetic [1] [µM]	CLint in vitro [2] [µL/min/mg]	half-life at 1 µM (in vitro) [min]	IC50 (Trypanosoma brucei; [6]) [µg/mL]	chromatographic logD [4]	IC50 (Trypanosoma brucei)	SMILES	IC50 at 72 h [3] [µg/mL]	IC50 at 24 h [5] [µg/mL]
1 (≈ 0.38 µg/mL)	–	–	–	–	1.43 µg/mL and 0.89 µg/mL and 2.17 µg/mL	COc1cccc(OC)c1CNCc1coc(-c2ccc(C(C)(C)C)cc2)n1	2.07 (≈ 5.44 µM)	43.2 (≈ 114 µM)
–	280	3	> 5	–	–	O/N=C(\NC1CCCCC1)c1ccc(-c2ccccc2)cc1	–	36 (≈ 122 µM)
3 (≈ 1.25 µg/mL)	–	–	1.02 (≈ 2.45 µM)	4.79	–	Fc1cccc(-c2cc3nc(-c4ccccc4)cc(NCCCN4CCCC4)n3n2)c1	2.49 (≈ 5.99 µM)	–
6 (≈ 2.59 µg/mL)	307	3	> 5	–	–	CC(C)CNC(CCc1ccccc1)c1nc(Cc2ccccc2)c(N2CCCCC2)o1 (configuration not stated)	> 10	–
2 (≈ 0.867 µg/mL)	227	4	4.82 (≈ 11.1 µM)	> 5.2	–	CCC(C)C(NCc1ccccc1OC)c1nc(-c2ccccc2)c(N2CCCCC2)o1 (configuration not stated)	> 10	–
3 (≈ 1.38 µg/mL)	236	4	2.45 (≈ 5.33 µM)	–	–	Cc1ccc(CNC(c2nc(Cc3ccccc3)c(N3CCOCC3)o2)C2CCCCC2)cc1 (configuration not stated)	> 10	–
–	209	4	> 5	–	–	CCc1ccccc1N/C(=N\O)c1ccccc1-c1ccccc1	–	16.3 (≈ 51.5 µM)
6 (≈ 2.61 µg/mL)	440	2	4.06 (≈ 9.32 µM)	–	–	CCC(C)C(NCc1ccccc1OC)c1nc(-c2ccccc2)c(N2CCOCC2)o1 (configuration not stated)	> 10	–
1 (≈ 0.379 µg/mL)	9	97	0.55 (≈ 1.45 µM)	–	–	CCCCCC(C)NCc1coc(-c2ccc(OCc3ccccc3)cc2)n1 (configuration not stated)	1.41 (≈ 3.73 µM)	–
6 (≈ 2.58 µg/mL)	–	–	> 5	4.77	–	O=C1CCCN1CCCNc1cc(-c2ccccc2)nc2cc(-c3ccc(F)cc3)nn12	> 10	–
–	116	7	> 5	–	–	O=C(NC1CCCCC1)c1ccccc1-c1ccccc1	–	> 50
6 (≈ 2.72 µg/mL)	–	–	4.86 (≈ 10.7 µM)	–	–	Cc1ccc(CNC(c2ccccc2)c2nc(Cc3ccccc3)c(N3CCOCC3)o2)cc1 (configuration not stated)	> 10	–
2 (≈ 0.813 µg/mL)	188	5	0.59 (≈ 1.45 µM)	4.16	–	CCCCCC(C)NCc1coc(-c2ccc(OCC(=O)c3ccccc3)cc2)n1 (configuration not stated)	1.74 (≈ 4.28 µM)	–
6 (≈ 2.6 µg/mL)	378	2	2.61 (≈ 6.02 µM)	–	–	CCC(C)C(NCc1ccc(C)cc1)c1nc(Cc2ccccc2)c(N2CCOCC2)o1 (configuration not stated)	> 10	–
3 (≈ 1.11 µg/mL)	13	65	0.39 (≈ 1.05 µM)	4.28	–	CCCCCC(C)NCc1coc(-c2ccc(OC3CCCCC3)cc2)n1 (configuration not stated)	1.48 (≈ 3.99 µM)	–
> 200	–	–	> 5	2.87	–	N=C(NC1CCCCC1)c1ccccc1-c1ccccc1	–	> 50
25 (≈ 11.2 µg/mL)	463	2	2.23 (≈ 4.96 µM)	> 5.2	–	COc1ccc(CNC(CC(C)C)c2nc(Cc3ccccc3)c(N3CCOCC3)o2)cc1 (configuration not stated)	> 10	–
3 (≈ 1.2 µg/mL)	–	–	4.56 (≈ 11.4 µM)	> 5.2	–	Cc1ccc(CNC(c2nc(-c3ccccc3)c(N3CCCCC3)o2)C2CC2)cc1 (configuration not stated)	> 10	–
6 (≈ 2.83 µg/mL)	–	–	4.53 (≈ 9.61 µM)	–	–	FC(F)(F)c1ccc(CNC(c2nc(Cc3ccccc3)c(N3CCOCC3)o2)C2CC2)cc1 (configuration not stated)	> 10	–
–	166	5	> 5	–	–	COc1ccc(N/C(=N/O)c2ccccc2-c2ccccc2)cc1	–	> 50
